{"source": "paper PMC5699210", "about": "(Bioorganic & medicinal chemistry letters, 2011)", "system": "rats with inflammation of the dura", "experiment": "Rat model of migraine pain", "assay_type": "in vivo", "settings": "oral 30 mg/kg", "note": "Entries after “also recorded” stand apart in the source; their conditions may differ."}
{"smiles": "CN1CCC[C@@H]1CCn1ccc2ccc(NC(=N)c3cccs3)cc21.Cl.Cl", "note": "[(R)-8]", "values": [{"measurement": "tactile hyperesthesia (allodynia) of the hindpaw", "setting": "15 min prior to the inflammatory soup, 30 mg/kg", "result": "attenuated the development of allodynia between 2 and 6 h post-dose; also recorded: attenuates the tactile hyperesthesia (allodynia); also recorded: reduce tactile hyperesthesia (allodynia)"}, {"measurement": "time of maximum effect on allodynia", "setting": "post-dose", "result": 4, "unit": "h"}]}
